Results reported in patent US9457081B2, “Combination therapy using c-Met inhibitor and beta-catenin inhibitor” (Samsung Electronics Co., Ltd., priority 2013, dated 2016).

Columns and labels:
Format in all cases: cell-based
HT-29 cells = experiment: HT-29 cell proliferation / viability (CellTiter Glo luminescence); conditions: crizotinib administered alone, 0-20 nM, 72 hours
Experimental: To confirm the effect of co-administration in a colon cancer cell on which an anti-c-Met antibody has no effect when administered alone, HT-29 (ATCC, HTB-38) cells were used for assaying the effect of co-administration on cell proliferation.
In particular, 5000 cells of HT-29 cell were incubated in 96-well plate (medium: 10% FBS in RPMI 1640 (GIBCO), incubation temperature: 37° C.). 24 hours after, the incubated cells were treated with L3-1Y/IgG2 prepared in reference example or anti-c-Met antibody 1 (heavy chain: SEQ ID NO: 109; light chain: SEQ ID NO: 110) and beta-catenin inhibitor XAV-939 (Selleck chemical). In particular, 72 hours after the antibody treatment, 100 uL of CellTiter Glo solution (Promega, G7572) was added to each well and left at room temperature for 30 minutes. The number of the cells was counted through luminescence signal, and the luminescence signal was recorded using Envision 2104 Multi-label Reader (Perkin Elmer). In the experiment, L3-1Y/IgG2 was used at the amount of 0, 0.016, 0.08, 0.4, and 2 μg/ml, and XAV-939 was used at the fixed amount of 5 uM. […]
In particular, 5000 cells of HT-29 cell were incubated in 96-well plate (medium: 10% FBS in RPMI 1640 (GIBCO), incubation temperature: 37° C.). […] The number of the cells was counted through luminescence signal, and the luminescence signal was recorded using Envision 2104 Multi-label Reader (Perkin Elmer). […]

Lovo cells = experiment: Lovo cell proliferation (CellTiter Glo luminescence); conditions: Lovo (FIG. 5); crizotinib administered alone; 72 hours
Experimental: To confirm the effect of co-administration in a colon cancer cell on which a c-Met inhibitor has no effect when administered alone, Lovo (ATCC, CCL-229) cells were used for assaying the effect of co-administration on cell proliferation.
In particular, 5000 cells of Lovo cell were incubated in 96-well plate (medium: 10% FBS in RPMI 1640 (GIBCO), incubation temperature: 37° C.). 24 hours after, the incubated cells were treated with a small molecular compound inhibiting c-Met, crizotinib (Selleck chemical) and beta-catenin inhibitor XAV-939 (Selleck chemical). In particular, 72 hours after the antibody treatment, 100 uL of CellTiter Glo solution (Promega, G7572) was added to each well and left at room temperature for 30 minutes. The number of the cells was counted through luminescence signal, and the luminescence signal was recorded using Envision 2104 Multi-label Reader (Perkin Elmer). In the experiment, L3-1Y/IgG2 was used at the amount of 0, 0.016, 0.08, 0.4, and 2 μg/ml, and XAV-939 was used at the fixed amount of 5 uM.

HCC1954 cells = experiment: HCC1954 cell proliferation with beta-catenin siRNA reverse transfection; conditions: c-Met inhibitor treated alone (L3-1Y/IgG2 0-2 μg/ml; crizotinib 0-20 nM), 72 hours
Excerpt: (§1) To confirm the effect of co-administration of c-Met inhibitor (anti-c-Met antibody L3-1Y/IgG2 or crizotinib) and beta-catenin siRNA in a cancer cell on which a c-Met inhibitor has no effect when administered alone, a breast cancer cell line HCC1954 (ATCC, CRL 2338) and a kidney cancer cell line Caki-1 (ATCC) were used for assaying the effect of the co-administration.
(§2) In particular, in 96-well plate, beta-catenin siRNA (Dharmacon, SMARTpool) was subjected to reverse transfection into 5000 cells/well of HCC1954 cell or Caki-1 cell and the cells were incubated (medium: 10% FBS in RPMI 1640 (GIBCO), incubation temperature: 37° C.). […] The number of the cells was counted through luminescence signal, and the luminescence signal was recorded using Envision 2104 Multi-label Reader (Perkin Elmer).

Caki-1 cells = experiment: Caki-1 cell proliferation with beta-catenin siRNA reverse transfection; conditions: c-Met inhibitor treated alone (L3-1Y/IgG2 0-2 μg/ml; crizotinib 0-20 nM), 72 hours
Excerpt: as §1, §2

Structure (SMILES): C[C@@H](Oc1cc(-c2cnn(C3CCNCC3)c2)cnc1N)c1c(Cl)ccc(F)c1Cl [crizotinib, 3-[(1R)-1-(2,6-dichloro-3-fluorophenyl)ethoxy]-5-(1-piperidin-4-ylpyrazol-4-yl)pyridin-2-amine, reference compound]
- cell proliferation inhibition effect (HT-29 cells): no cell proliferation inhibition effect is observed
- cell proliferation inhibition effect (Lovo cells): no cell proliferation inhibition effect is observed
- cell proliferation inhibition effect (HCC1954 cells): no cell proliferation inhibition effect is observed
- cell proliferation inhibition effect (Caki-1 cells): no cell proliferation inhibition effect is observed
